In brackets after ≈: the same amount, converted by molar mass.
Experiments:
[1] = test system: External panelists; test: Line scale (15-point sucrose equivalence) sensory test, Example 3A/3C, sucrose or LSB, pH 7.1; type: in vivo, Human; parameters: key to Average Sweetness / Average Bitterness: 15-point scale: 0 = 0% sucrose to 15 = 15% sucrose; references = 5
Procedure: Several types of sensory tests were used to determine the efficacy of 5-(neopentyloxy)-1H-benzo[c][1,2,6]thiadiazin-4-amino-2,2-dioxide in enhancing sweetness of sucrose. Two types of tests were conducted: • 1) Sensory scaling tests were performed using a 15-point percent sucrose equivalence scale for sweetness in order to evaluate sweetness enhancement 5-(neopentyloxy)-1H-benzo[c][1,2,6]thiadiazin-4-amino-2,2-dioxide in sucrose, or in fructose. • 2) Paired comparison tests (2-alternative forced choice difference tests) were used to determine sweetness equivalence for solutions of sucrose vs. 5-(neopentyloxy)-1H-benzo[c][1,2,6]thiadiazin-4-amino-2,2-dioxide or buffer vs. 5-(neopentyloxy)-1H-benzo[c][1,2,6]thiadiazin-4-amino-2,2-dioxide. Stimuli:
Tests were performed with sucrose or fructose. Sweetener was evaluated with and/or without 5-(neopentyloxy)-1H-benzo[c][1,2,6]thiadiazin-4-amino-2,2-dioxide at the appropriate concentration(s).
5-(Neopentyloxy)-1H-benzo[c][1,2,6]thiadiazin-4-amino-2,2-dioxide was prepared as a concentrated stock solution in ethanol to ensure dissolution of the compound. Therefore, all taste solutions contained 0.1% ethanol final concentration. Samples without compound also contained 0.1% ethanol. Low sodium phosphate buffer consists of 0.3 mM KCl, 0.5 mM Na2HPO4, and 0.175 mM KH2PO4.
In scaling test situations, the samples were rated on a 15-point scale for sweetness, ranging from 0=0% sucrose to 15=15% sucrose. To evaluate attributes other than sweetness, references are used for training and are prepared according to the table below. Note that each reference was given a score of 5 on the 15-point scale.
External panelists were used for the tests. The exact number of panelists is reported with test results. Subjects were instructed not to eat or drink anything (except water) for at least 1 hour prior to the test.
Panelists rinsed their mouths with water prior to starting any test. Samples were presented to panelists in a randomized, counterbalanced order. Panelists rinsed with water and had up to a 1 minute delay to clear the mouth of any tastes after each evaluation. Two replicates of each test were performed, unless otherwise noted.

[2] = Solubility in buffers and food grade solvents (Table 14); type: physicochemical
Procedure: Solubility of 3-(4-amino-2,2-dioxide-1H-benzo[c][1,2,6]thiadiazin-5-yloxy)-2′,2′-dimethyl-N-propylpropanamide
Various solutions of 3-(4-amino-2,2-dioxide-1H-benzo[c][1,2,6]thiadiazin-5-yloxy)-2′,2′-dimethyl-N-propylpropanamide 3-(4-amino-2,2-dioxide-1H-benzo[c][1,2,6]thiadiazin-5-yloxy)-2′,2′-dimethyl-N-propylpropanamide were prepared as indicated below.

[3] = Preparation of liquid solutions in food grade solvents (dissolution trials, Table 3); type: physicochemical; conditions: for solubility rate: propylene glycol
Procedure: Liquid compositions of 3-(4-amino-2,2-dioxide-1H-benzo[c][1,2,6]thiadiazin-5-yloxy)-2′,2′-dimethyl-N-propylpropanamide were prepared using a variety of different solvents (Table 3). It was discovered by increasing the pH of the solution with alkaline substance, such as alkali metal salt, one can increase the concentration level of 3-(4-amino-2,2-dioxide-1H-benzo[c][1,2,6]thiadiazin-5-yloxy)-2′,2′-dimethyl-N-propylpropanamide in solutions. Examples of suitable alkali metal salt include, but are not limited to, sodium bicarbonate, sodium carbonate, sodium hydroxide, and the like. In propylene glycol, sodium bicarbonate will raise pH from 7.8 to 8.5; the solubility rate of 3-(4-amino-2,2-dioxide-1H-benzo[c][1,2,6]thiadiazin-5-yloxy)-2′,2′-dimethyl-N-propylpropanamide will be increased from 0.5% to 1.0%.
• 1. Weigh a desired amount of compound and sodium bicarbonate. • 2. Calculate the volume of food grade solvent(s) (water, ethyl alcohol, isopropyl alcohol, butylenes glycol, propylene glycol, triacetin, glycerol, vegetable oils (soy, corn, peanut, persic, cottonseed, sesame), olive oil, fractionated coconut oil, neobee, tributyrin, mono and diglycerides, ethyl lactate, ethyl levulinate, butyl stearate, triethyl citrate, diethyl succinate, diethyl malonate, acetic acid, lactic acid, phosphoric acid, benzyl alcohol, tetrahydrofurfural alcohol, D-limonene, γ-valerolactone, butyrolactone, polyethylene glycol sorbitan monostearate (Tween®), etc. to add to the dry, weighed out compound to make a concentration of 1,000-50,000 ppm (0.1-5%). • 3. Pre heat the appropriate amount of solvent to 100 to 200° F. while stirring at 1,100 rpm on a hot plate using a stir bar. • 4. Add pre-weighed compound to heated solvent (when temperature reaches 100 to 200° F.). • 5. Continue heating solvent and inspect to insure complete dissolution, return to the hot plate if necessary. Preparation Procedure for Water as a Solvent:
Preparation Procedure of the Liquid Diluted Form (without Heat): • 1. Weigh desire amount of compound. • 2. Calculate the volume of food grade solvent(s) (water, ethanol, propylene glycol, triacetin, glycerol, neobee, DI water, phosphoric acid, lactic acid, olive oil) to add to the dry, weighed out compound to make a concentration of 1,000-50,000 ppm (0.1-5%). • 3. Stir solvent at 1,100 rpm on a hot plate using a stir bar. • 4. Add pre-weighed compound to solvent. • 5. Continue stirring and inspect to insure complete dissolution, return to the hot plate if necessary.

In the case of `OC[C@H]1O[C@@](CO)(O[C@H]2O[C@H](CO)[C@@H](O)[C@H](O)[C@H]2O)[C@@H](O)[C@@H]1O` [Sucrose, sucrose], the “Average Sweetness” value ([1]; 2% Sucrose, Table 10, n = 14) is reported as 2.1, the “Average Bitterness” value ([1]; 2% Sucrose, Table 12, n = 14) is reported as 0.1 and the “Average Sweetness” value ([1]; 4% Sucrose, Table 10, n = 14) is reported as 3.8. The “Average Bitterness” value ([1]; 4% Sucrose, Table 12, n = 14) was 0.0, the “Average Sweetness” value ([1]; 6% Sucrose, Table 10, n = 14) was 6.0 and the “Average Sweetness” value ([1]; 6% Sucrose, Table 11, n = 14) was 7.3. For the same molecule, the “Average Bitterness” value ([1]; 6% Sucrose, Table 12, n = 14) was 0.4, the “Average Bitterness” value ([1]; 6% Sucrose, Table 13, n = 14) was 0.4 and the “Average Bitterness” value ([1]; 6% Sucrose, pH 7.1, n = 32) was 0.3. The “Average Sweetness” value ([1]; 6% Sucrose, pH 7.1, n = 32) was 6.5, the “Average Sweetness” value ([1]; 8% Sucrose, Table 11, n = 14) was 8.6 and the “Average Bitterness” value ([1]; 8% Sucrose, Table 13, n = 14) was 0.4. The “Average Bitterness” value ([1]; 8% Sucrose, pH 7.1, n = 32) was 0.3, the “Average Sweetness” value ([1]; 8% Sucrose, pH 7.1, n = 32) was 7.9 and the “Average Sweetness” value ([1]; 9% Sucrose, Table 11, n = 14) was 9.4. For the same molecule, the “Average Bitterness” value ([1]; 9% Sucrose, Table 13, n = 14) was 0.6, the “Average Bitterness” value ([1]; 9% Sucrose, pH 7.1, n = 32) was 0.2 and the “Average Sweetness” value ([1]; 9% Sucrose, pH 7.1, n = 32) was 8.9. The “Average Sweetness” value ([1]; 10% Sucrose, Table 11, n = 14) was 9.6, the “Average Bitterness” value ([1]; 10% Sucrose, Table 13, n = 14) was 0.2 and the “Average Bitterness” value ([1]; 10% Sucrose, pH 7.1, n = 32) was 0.3. The “Average Sweetness” value ([1]; 10% Sucrose, pH 7.1, n = 32) was 9.3.

For `CCCNC(=O)C(C)(C)COc1cccc2c1C(N)=NS(=O)(=O)N2` [3-(4-amino-2,2-dioxide-1H-benzo[c][1,2,6]thiadiazin-5-yloxy)-2′,2′-dimethyl-N-propylpropanamide], the “Solubility (ppm)” value ([2]; Citric Acid Buffer, pH 2.8) was 50 ppm, the “Solubility (ppm)” value ([2]; Citric Acid Buffer, pH 4.0) was 50 ppm and the “Solubility (ppm)” value ([2]; Ethanol) was 3757 ppm. The “Solubility (ppm)” value ([2]; Glycerol) was 2800 ppm, the “Solubility (ppm)” value ([2]; Phosphate Buffer, pH 7.1) was 602 ppm and the “Solubility (ppm)” value ([2]; Propylene Glycol (PG)) was 6096 ppm. The “Solubility (ppm)” value ([2]; Triacetin) was 567 ppm, the solubility ([2]; aqueous buffer, Citric Acid Buffer, pH 4.0) was 140 µM (≈ 49.6 µg/mL) and the “aqueous solubility (conclusion)” value ([2]; aqueous buffers pH 2.8-7.1) was “pH dependent, and lower solubility was found at low pH”. It also gave a solubility ([2]; citric acid buffer, pH 2.8, aqueous buffer) of 140 µM (≈ 49.6 µg/mL), a solubility ([2]; ethanol, organic solvent or mixture) of 10600 µM (≈ 3760 µg/mL) and a solubility ([2]; glycerol, organic solvent or mixture) of 7900 µM (≈ 2800 µg/mL). For the same molecule, the solubility ([2]; organic solvent or mixture, Propylene Glycol (PG)) was 17200 µM (≈ 6100 µg/mL), the solubility ([2]; phosphate buffer, pH 7.1, aqueous buffer) was 1700 µM (≈ 603 µg/mL) and the solubility ([2]; triacetin, organic solvent or mixture) was 1600 µM (≈ 567 µg/mL). The “Results (dissolution)” value ([3]; Ethanol, 1.0%, Ambient/over 30 minutes) was “Did not go into solution”, the “Results (dissolution)” value ([3]; Glycerol, 0.1%, Ambient/over 30 minutes) was “Did not go into solution” and the “Results (dissolution)” value ([3]; Lactic Acid, 1.0%, Ambient/over 30 minutes) was “Did not go into solution”. For the same molecule, the “Results (dissolution)” value ([3]; Neobee, 0.1%, 185° F./over 30 minutes) was “Did not go into solution”, the “Results (dissolution)” value ([3]; Neobee, 0.1%, Ambient/over 30 minutes) was “Did not go into solution” and the “Results (dissolution)” value ([3]; Olive Oil (Star Original), 0.1%, 150° F./over 30 minutes) was “Did not go into solution”. The “Results (dissolution)” value ([3]; Olive Oil (Star Original), 0.1%, Ambient/over 30 minutes) was “Did not go into solution”, the “Results (dissolution)” value ([3]; Phosphoric acid, 0.1%, Ambient/over 30 minutes) was “Did not go into solution” and the “Results (dissolution)” value ([3]; Propylene Glycol, 0.3%, Ambient/over 30 minutes) was “Did not go into solution”. The “Results (dissolution)” value ([3]; Propylene Glycol, 0.5%, Ambient/over 30 minutes) was “Did not go into solution”, the “Results (dissolution)” value ([3]; Propylene Glycol, 1.0%, Ambient/over 30 minutes) was “Did not go into solution” and the “Results (dissolution)” value ([3]; Triacetin, 0.1%, Ambient/over 30 minutes) was “Did not go into solution”. For the same molecule, the concentration obtained ([3]; in ethanol) was “about 0.1 wt. %”, the concentration readily obtained ([3]; in propylene glycol) was no more than 0.5% and the concentration obtained ([3]; in water) was 10 ppm. It also gave a solubility rate ([3]; pH 7.8, before sodium bicarbonate) of 0.5% and a solubility rate ([3]; sodium bicarbonate raises pH to 8.5) of 1.0%.

From patent US8609173B2, “Compositions comprising sweetness enhancers and methods of making them” (Senomyx Inc., priority 2008, dated 2013)
